{"source": "ChEMBL document CHEMBL1201862", "about": "“PubChem BioAssay data set” (2004)", "key": {"[1]": {"test": "P. falciparum Dd2 growth inhibitors, dose response, SYBR Green, cherry-picked samples (AID 1159567)", "format": "functional, cell-based"}, "Cytochrome P450 1A2": {"target": "T1, Cytochrome P450 1A2 (Homo sapiens, UniProt P05177)", "T1 sequence (P05177 whole entry)": "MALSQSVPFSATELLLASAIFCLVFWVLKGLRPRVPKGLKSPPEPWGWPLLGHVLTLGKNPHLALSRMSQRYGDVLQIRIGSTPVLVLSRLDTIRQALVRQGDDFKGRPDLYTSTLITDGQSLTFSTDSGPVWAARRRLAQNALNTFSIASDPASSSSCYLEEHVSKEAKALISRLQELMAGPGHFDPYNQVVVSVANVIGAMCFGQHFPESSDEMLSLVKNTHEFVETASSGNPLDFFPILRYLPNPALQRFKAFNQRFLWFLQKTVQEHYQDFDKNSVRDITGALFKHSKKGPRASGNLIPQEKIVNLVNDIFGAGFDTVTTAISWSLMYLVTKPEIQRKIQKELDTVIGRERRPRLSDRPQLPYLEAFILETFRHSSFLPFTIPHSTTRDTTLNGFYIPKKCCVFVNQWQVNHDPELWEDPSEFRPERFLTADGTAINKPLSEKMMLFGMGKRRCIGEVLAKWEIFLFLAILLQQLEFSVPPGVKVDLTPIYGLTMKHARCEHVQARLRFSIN"}, "[2]": {"target": "T2, Rac GTPase-activating protein 1 (Homo sapiens, UniProt Q9H0H5)", "T2 sequence (Q9H0H5 whole entry)": "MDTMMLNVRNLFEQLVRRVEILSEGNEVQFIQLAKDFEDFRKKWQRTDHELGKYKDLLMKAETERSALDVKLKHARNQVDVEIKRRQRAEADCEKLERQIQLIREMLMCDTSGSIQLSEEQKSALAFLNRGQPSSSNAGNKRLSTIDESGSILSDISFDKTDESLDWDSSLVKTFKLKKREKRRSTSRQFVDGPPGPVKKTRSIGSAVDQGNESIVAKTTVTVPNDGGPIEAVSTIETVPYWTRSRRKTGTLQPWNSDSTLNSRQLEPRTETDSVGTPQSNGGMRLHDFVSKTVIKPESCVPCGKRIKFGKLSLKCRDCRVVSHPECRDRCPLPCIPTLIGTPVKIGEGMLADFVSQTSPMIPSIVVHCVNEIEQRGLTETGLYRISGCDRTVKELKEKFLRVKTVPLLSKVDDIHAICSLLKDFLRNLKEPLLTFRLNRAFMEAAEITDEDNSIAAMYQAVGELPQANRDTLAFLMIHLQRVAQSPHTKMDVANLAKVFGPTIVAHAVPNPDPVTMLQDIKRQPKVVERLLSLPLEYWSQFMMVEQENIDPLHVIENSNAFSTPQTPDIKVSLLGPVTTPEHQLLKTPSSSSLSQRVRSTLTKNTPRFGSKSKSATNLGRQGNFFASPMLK", "test": "blockers of MgcRacGAP-driven Rac1 GTP hydrolysis – biochemical, ADP Hunter fluorescence, primary and confirmatory, confirmation (AID 624330)", "format": "functional"}, "Cytochrome P450 2C9": {"target": "Cytochrome P450 2C9 (Homo sapiens, UniProt P11712)", "sequence (P11712 whole entry)": "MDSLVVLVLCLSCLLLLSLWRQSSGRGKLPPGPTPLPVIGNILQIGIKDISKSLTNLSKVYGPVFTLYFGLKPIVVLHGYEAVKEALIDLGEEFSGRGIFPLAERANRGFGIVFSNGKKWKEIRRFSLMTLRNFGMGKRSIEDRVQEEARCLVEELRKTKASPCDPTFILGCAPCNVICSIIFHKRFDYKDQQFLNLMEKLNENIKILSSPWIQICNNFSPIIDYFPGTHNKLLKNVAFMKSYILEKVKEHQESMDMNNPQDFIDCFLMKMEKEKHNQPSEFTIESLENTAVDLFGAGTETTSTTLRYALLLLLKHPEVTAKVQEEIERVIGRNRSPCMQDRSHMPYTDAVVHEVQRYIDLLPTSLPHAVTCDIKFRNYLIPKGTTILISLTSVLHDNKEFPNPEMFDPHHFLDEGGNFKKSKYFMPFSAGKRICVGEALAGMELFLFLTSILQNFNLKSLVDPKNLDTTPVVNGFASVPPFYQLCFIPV"}, "[3]": {"target": "FAD-linked sulfhydryl oxidase ALR (Homo sapiens, UniProt P55789)", "sequence (P55789 whole entry)": "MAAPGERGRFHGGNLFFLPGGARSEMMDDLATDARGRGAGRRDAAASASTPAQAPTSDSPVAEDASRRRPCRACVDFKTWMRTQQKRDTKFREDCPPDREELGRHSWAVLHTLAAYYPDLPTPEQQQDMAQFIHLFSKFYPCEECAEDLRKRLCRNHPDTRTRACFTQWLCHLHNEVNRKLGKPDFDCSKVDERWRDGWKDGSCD", "test": "ALR-catalysed DTT oxidation blockers – biochemical, H2O2 detection, luminescence, cherry-pick, dose response (AID 493248)"}, "Cytochrome P450 2D6": {"target": "Cytochrome P450 2D6 (Homo sapiens, UniProt P10635)", "sequence (P10635 whole entry)": "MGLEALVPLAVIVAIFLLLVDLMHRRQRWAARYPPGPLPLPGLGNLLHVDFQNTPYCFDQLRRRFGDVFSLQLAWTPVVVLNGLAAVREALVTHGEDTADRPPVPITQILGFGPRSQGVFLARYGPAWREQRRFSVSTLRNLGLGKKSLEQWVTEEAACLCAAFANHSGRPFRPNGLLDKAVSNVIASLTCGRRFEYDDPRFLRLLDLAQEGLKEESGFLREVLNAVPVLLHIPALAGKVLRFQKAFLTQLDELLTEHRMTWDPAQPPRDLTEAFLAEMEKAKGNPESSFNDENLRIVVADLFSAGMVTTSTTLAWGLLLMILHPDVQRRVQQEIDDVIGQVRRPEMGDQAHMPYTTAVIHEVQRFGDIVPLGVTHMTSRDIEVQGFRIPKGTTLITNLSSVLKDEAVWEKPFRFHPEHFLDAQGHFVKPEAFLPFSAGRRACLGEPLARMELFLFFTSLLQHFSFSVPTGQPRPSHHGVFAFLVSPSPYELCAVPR"}, "Cytochrome P450 3A4": {"target": "Cytochrome P450 3A4 (Homo sapiens, UniProt P08684)", "sequence (P08684 whole entry)": "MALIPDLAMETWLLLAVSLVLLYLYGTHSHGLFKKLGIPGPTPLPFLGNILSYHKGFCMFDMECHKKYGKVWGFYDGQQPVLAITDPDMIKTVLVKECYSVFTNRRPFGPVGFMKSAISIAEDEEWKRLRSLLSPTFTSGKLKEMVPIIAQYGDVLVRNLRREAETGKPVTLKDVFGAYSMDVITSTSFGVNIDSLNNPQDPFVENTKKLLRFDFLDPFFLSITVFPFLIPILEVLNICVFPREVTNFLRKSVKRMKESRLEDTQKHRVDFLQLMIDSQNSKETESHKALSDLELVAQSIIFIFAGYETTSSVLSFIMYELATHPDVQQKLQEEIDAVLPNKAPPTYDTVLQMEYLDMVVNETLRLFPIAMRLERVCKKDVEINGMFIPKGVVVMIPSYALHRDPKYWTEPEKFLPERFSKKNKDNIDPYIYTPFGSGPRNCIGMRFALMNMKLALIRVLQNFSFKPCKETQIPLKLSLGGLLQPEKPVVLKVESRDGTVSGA"}, "Paired box protein Pax-8": {"target": "Paired box protein Pax-8 (Homo sapiens, UniProt Q06710)", "sequence (Q06710 whole entry)": "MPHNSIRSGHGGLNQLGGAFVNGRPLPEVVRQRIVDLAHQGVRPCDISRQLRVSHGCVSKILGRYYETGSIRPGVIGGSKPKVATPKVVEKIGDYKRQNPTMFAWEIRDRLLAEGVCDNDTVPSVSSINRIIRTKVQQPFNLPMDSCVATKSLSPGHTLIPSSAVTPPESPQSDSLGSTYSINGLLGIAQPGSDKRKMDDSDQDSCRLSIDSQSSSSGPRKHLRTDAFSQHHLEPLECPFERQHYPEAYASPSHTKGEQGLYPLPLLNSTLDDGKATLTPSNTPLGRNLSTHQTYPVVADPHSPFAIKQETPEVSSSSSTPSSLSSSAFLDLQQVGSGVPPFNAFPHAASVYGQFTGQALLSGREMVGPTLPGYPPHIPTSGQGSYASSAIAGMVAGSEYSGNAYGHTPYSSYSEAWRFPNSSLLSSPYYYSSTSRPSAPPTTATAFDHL", "test": "PAX8 transcriptional activity inhibition in RMG-I – RMG-I cells, luciferase, cherry-pick, dose response (AID 687027);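 also: luciferase reporter driven by Pax8 target thyroperoxidase promoter measured by SteadyGlo luminescence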", "format": "functional, cell-based"}, "[4]": {"test": "reduction of Shn3 3'UTR-driven luciferase in osteoblasts – cell-based, Clone20 osteoblasts, firefly luciferase, cherry-picked, dose response (AID 624132)", "format": "functional"}, "[5]": {"test": "loss of viability in HepG2 cells – cell-based, CellTiter-Glo, cherry-picked, cytotoxicity control for Shn3 inhibitor project, dose response (AID 624134)", "format": "functional"}, "[6]": {"test": "non-specific 3'UTR reporter inhibition in Clone20-Shn3RL – cell-based, Renilla luciferase, cherry-picked, counter-screen for Shn3 inhibitor project, dose response (AID 624133)", "format": "functional"}, "[7]": {"test": "NIH-3T3 fibroblast cytotoxicity, dose response, cytotoxicity control, cell-based, fluorescence, Alamar Blue, secondary assay (AID 2327);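 also: NIH-3T3 mouse fibroblasts cultured with fluconazole at 8 µg/mL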", "format": "functional"}, "Cytochrome P450 2C19": {"target": "Cytochrome P450 2C19 (Homo sapiens, UniProt P33261)", "sequence (P33261 whole entry)": "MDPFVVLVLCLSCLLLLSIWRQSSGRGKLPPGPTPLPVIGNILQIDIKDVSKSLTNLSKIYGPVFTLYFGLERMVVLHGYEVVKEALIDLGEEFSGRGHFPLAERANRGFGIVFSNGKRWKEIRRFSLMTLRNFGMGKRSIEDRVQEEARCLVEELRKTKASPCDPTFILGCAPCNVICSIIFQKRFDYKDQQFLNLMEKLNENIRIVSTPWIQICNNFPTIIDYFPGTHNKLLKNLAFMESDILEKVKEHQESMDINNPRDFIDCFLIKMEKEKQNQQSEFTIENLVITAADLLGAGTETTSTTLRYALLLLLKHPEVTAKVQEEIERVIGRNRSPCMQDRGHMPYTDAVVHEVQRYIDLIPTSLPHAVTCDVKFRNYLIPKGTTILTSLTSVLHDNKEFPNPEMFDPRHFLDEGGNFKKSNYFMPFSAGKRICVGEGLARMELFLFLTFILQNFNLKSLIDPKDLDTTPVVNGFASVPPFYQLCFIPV", "test": "Cytochrome panel assay with activity outcomes. Panel member name: p450-cyp2c19 Compounds with AC50 equal or less than 10 uM are considered active", "format": "functional", "conditions": "read-out: AC50"}}, "note": "Activity calls are given as the source filed them.", "data": [{"compound": "CO[C@H]1CN(C)C(=O)c2cc(NC(=O)c3ccc(F)cc3)ccc2OC[C@H](C)N(C(=O)c2ccc(F)cc2)C[C@H]1C", "values": [{"measurement": "AC50", "setting": "[1]", "value": "6.03 µM (active)"}]}, {"compound": "COc1ccc(-n2c(=O)c(-c3ccc(Cl)cc3)nc3cnc(N4CCNCC4)nc32)cc1", "values": [{"measurement": "AC50", "setting": "Cytochrome P450 1A2", "value": "12.6 µM (inconclusive)"}]}, {"compound": "CN(C)c1ccc2c(c1)[C@@H]1C[C@@H](CC(=O)N3CCc4ccccc4C3)O[C@@H](CO)[C@@H]1O2", "values": [{"measurement": "AC50", "setting": "[1]", "value": "9.12 µM (active)"}]}, {"compound": "CCc1ccc(CCN2CCCCC2)nc1", "values": [{"measurement": "AC50", "setting": "Cytochrome P450 1A2", "value": "5.01 µM (inconclusive)"}]}, {"compound": "OCCn1cnc2c(SCc3ccccc3)ncnc21", "values": [{"measurement": "AC50", "setting": "Cytochrome P450 1A2", "value": "3.16 µM (inconclusive)"}]}, {"compound": "CC(=O)N1CCN(c2ccc(NCc3ccco3)cc2)CC1", "values": [{"measurement": "IC50", "setting": "[2]", "value": "14.6 µM (active)"}]}, {"compound": "O=C(NCc1ccco1)c1cc(C(=O)C2CC2)c[nH]1", "values": [{"measurement": "AC50", "setting": "Cytochrome P450 1A2", "value": "0.2 µM (inconclusive)"}, {"measurement": "AC50", "setting": "Cytochrome P450 2C9", "value": "39.8 µM (inconclusive)"}]}, {"compound": "CCc1nn(C)c(-c2nnc(S)n2N)c1Cl", "values": [{"measurement": "AC50", "setting": "[3]", "value": "0.673 µM (active)"}, {"measurement": "AC50", "setting": "Cytochrome P450 2C9", "value": "28.2 µM (inconclusive)"}]}, {"compound": "CC(C)=CCNc1ncnc2nc[nH]c12", "values": [{"measurement": "AC50", "setting": "Cytochrome P450 1A2", "value": "6.31 µM (inconclusive)"}]}, {"compound": "O=C(OC1CCN(CCCl)CC1)C(c1ccccc1)c1ccccc1", "values": [{"measurement": "AC50", "setting": "Cytochrome P450 2D6", "value": "31.6 µM (inconclusive)"}, {"measurement": "AC50", "setting": "Cytochrome P450 1A2", "value": "12.6 µM (inconclusive)"}, {"measurement": "AC50", "setting": "Cytochrome P450 3A4", "value": "10 µM (inconclusive)"}]}, {"compound": "CCN(CC)CC(=O)NN(Cc1ccccc1)c1ccccc1", "values": [{"measurement": "IC50", "setting": "[2]", "value": "108 µM (active)"}]}, {"compound": "COc1cccc(C(=O)Nc2cc3c(cc2N2CCCC2)n(C)c(=O)n3C)c1", "values": [{"measurement": "IC50", "setting": "[2]", "value": "156 µM (active)"}]}, {"compound": "O=C(CCN1CCN(C(c2ccccc2)c2ccccc2)CC1)N/N=C/c1ccc(O)cc1", "values": [{"measurement": "AC50", "setting": "[3]", "value": "1.6 µM (active)"}, {"measurement": "IC50", "setting": "[2]", "value": "88.2 µM (active)"}]}, {"compound": "CCCN(C)C[C@H]1OCCCC[C@@H](C)Oc2ccc(NC(=O)c3ccccc3)cc2C(=O)N([C@H](C)CO)C[C@H]1C", "values": [{"measurement": "AC50", "setting": "Paired box protein Pax-8", "value": "69.5 µM (active)"}]}, {"compound": "COc1ccccc1CNC(=O)C[C@H]1C[C@@H]2c3cc(NC(=O)Nc4ccc(C(F)(F)F)cc4)ccc3O[C@@H]2[C@@H](CO)O1", "values": [{"measurement": "AC50", "setting": "[1]", "value": "8.47 µM (active)"}]}, {"compound": "CCc1ccc(CNC(=O)c2cc3c(C)nc4ccccc4c3o2)cc1", "values": [{"measurement": "AC50", "setting": "[4]", "value": "2.02 µM (active)"}, {"measurement": "AC50", "setting": "[5]", "value": "> 70 µM (inactive)"}, {"measurement": "AC50", "setting": "[6]", "value": "7.78 µM (active)"}]}, {"compound": "O=C(Nc1ccccc1)c1cc(-n2cnnc2)ccc1Cl", "values": [{"measurement": "AC50", "setting": "Cytochrome P450 1A2", "value": "12.6 µM (inconclusive)"}, {"measurement": "AC50", "setting": "Cytochrome P450 2C9", "value": "25.1 µM (inconclusive)"}]}, {"compound": "CN1C[C@H]2[C@@H](c3ccccc31)[C@H](CO)N2Cc1ccccc1F", "values": [{"measurement": "AC50", "setting": "[1]", "value": "8.06 µM (active)"}]}, {"compound": "CCOCCCNCC(=O)NCC1CCCCC1", "values": [{"measurement": "IC50", "setting": "[2]", "value": "141 µM (active)"}]}, {"compound": "CC1CCCCN1Cc1cccnc1", "note": "(stereo not given)", "values": [{"measurement": "IC50", "setting": "[2]", "value": "109 µM (active)"}]}, {"compound": "O=[N+]([O-])c1ccc(-c2cn(-c3ccccc3F)c(=S)[nH]2)cc1", "values": [{"measurement": "AC50", "setting": "[3]", "value": "> 100 µM (inactive)"}]}, {"compound": "O=C(NCc1cccnc1)c1ccc(COc2ccccc2Cl)cc1", "values": [{"measurement": "AC50", "setting": "[3]", "value": "0.055 µM (active)"}]}, {"compound": "COc1ccc(-c2cc(-c3cc(F)ccc3O)[nH]n2)cc1OC", "values": [{"measurement": "EC50", "setting": "[7]", "value": "> 150 µM (inactive)"}, {"measurement": "AC50", "setting": "Cytochrome P450 2D6", "value": "28.2 µM (inconclusive)"}, {"measurement": "AC50", "setting": "Cytochrome P450 2C9", "value": "39.8 µM (inconclusive)"}]}, {"compound": "C[N+](C)(C)/N=C\\c1ccc(O)c(O)c1", "values": [{"measurement": "AC50", "setting": "Cytochrome P450 2D6", "value": "2 µM (inconclusive)"}, {"measurement": "AC50", "setting": "Cytochrome P450 1A2", "value": "10 µM (inconclusive)"}]}, {"compound": "CCOC(=O)Cc1csc(NC(=S)NC(=O)c2ccc(F)cc2)n1", "values": [{"measurement": "AC50", "setting": "Cytochrome P450 1A2", "value": "1.12 µM (inconclusive)"}, {"measurement": "AC50", "setting": "Cytochrome P450 3A4", "value": "17.8 µM (inconclusive)"}, {"measurement": "AC50", "setting": "Cytochrome P450 2C9", "value": "1.26 µM (inconclusive)"}]}, {"compound": "Nc1ccc2ccc(O)cc2c1", "values": [{"measurement": "IC50", "setting": "[2]", "value": "36.7 µM (active)"}]}, {"compound": "CC(C)c1ccc(NC(=O)C(c2ccccc2)N2CCN(C=O)CC2)cc1", "note": "(stereo not given)", "values": [{"measurement": "AC50", "setting": "Cytochrome P450 2C19", "value": "28.2 µM (inconclusive)"}, {"measurement": "AC50", "setting": "Cytochrome P450 2D6", "value": "14.1 µM (inconclusive)"}, {"measurement": "AC50", "setting": "Cytochrome P450 1A2", "value": "31.6 µM (inconclusive)"}, {"measurement": "AC50", "setting": "Cytochrome P450 3A4", "value": "11.2 µM (inconclusive)"}, {"measurement": "AC50", "setting": "Cytochrome P450 2C9", "value": "14.1 µM (inconclusive)"}]}, {"compound": "CCc1ccccc1N1C(=O)CC(N2CCc3ccccc32)C1=O", "note": "(stereo not given)", "values": [{"measurement": "AC50", "setting": "[3]", "value": "2.81 µM (active)"}]}, {"compound": "CC(C)CN1C(=O)c2ccc(C(=O)Nc3ccccc3C(=O)O)cc2C1=O", "values": [{"measurement": "AC50", "setting": "[3]", "value": "> 100 µM (inactive)"}]}, {"compound": "NC(=O)CC(NC(=O)c1ccccc1)c1ccc(N2CCC(Cc3ccccc3)CC2)c([N+](=O)[O-])c1", "note": "(stereo not given)", "values": [{"measurement": "AC50", "setting": "[4]", "value": "2.61 µM (active)"}, {"measurement": "AC50", "setting": "[5]", "value": "2.74 µM (active)"}, {"measurement": "AC50", "setting": "[6]", "value": "4.2 µM (active)"}]}, {"compound": "OCC1OC(n2cnc3c(O)nnnc32)C(O)C1O", "note": "(stereo not given)", "values": [{"measurement": "AC50", "setting": "Paired box protein Pax-8", "value": "0.785 µM (active)"}]}]}
